Measurements reported in patent US20190375708A1 (VenatoRx Pharmaceuticals, Inc., priority 2018, published 2019).

What was measured:
[1] = In vitro cytotoxicity assay (MTT cell viability) in HepG2 cells; type: cell-based, human; conditions: human
Procedure, shortened: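 Viability measured by MTT conversion, absorbance at 492 nm, as percent of vehicle-treated wells. Compounds spanned 30 μM to 1.0 nM in half-log steps over a 7-day exposure of parental HepG2 cells; CC50 derived by 4-parameter curve fit.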

[2] = test system: HBV replication in HepAD38 cells; experiment: Anti-HBV replication assay in HepAD38 cells (QPCR of extracellular HBV DNA); type: cell-based, HBV (genotype D, serotype ayw); conditions: Hepatitis B virus, 168 h, 7 days incubation, extracellular HBV DNA by QPCR, read-out: Anti-HBV EC50
Procedure, shortened: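 EC50 values reflect 50% reduction of extracellular HBV DNA, measured by QPCR after 7-day treatment of tetracycline-deprived HepAD38 cells with compound […].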

| SMILES | CC50 at 7 days [1] [nM] | EC50 [2] [nM] |
| --- | --- | --- |
| Cc1cc(NC(=O)c2c(Cl)c(C(=O)C(=O)N[C@@H](C)C(F)(F)F)n3c2CCC3)cnc1F [Example 574, (S)-6-chloro-N-(6-ffluoro-5-methylpyridin-3-yl)-5-(2-oxo-2-((1,1,1-trifluoropropan-2-yl)amino)acetyl)-2,3-dihydro-1H-pyrroliine-7-carboxamide] | 5000 to 30000 | 500 to 1000 |
| Cc1cc(NC(=O)c2c(C)c(C(=O)C(=O)NOCC(F)(F)F)n(C)c2C)ccc1F [Example 157, N-(4-fluoro-3-methylphenyl)-1,2,4-trimethyl-5-(2-oxo-2-((2,2,2-trifluoroethoxy)amino)acetyl)-1H-pyrrole-3-carboxamide] | > 30000 | 50 to 499 |
| Cc1cc(NC(=O)c2c(C)c(C(=O)C(=O)N[C@H]3COC[C@@H]3O)n(CCF)c2C)ccc1F [Example 130, N-(4-fluoro-3-methylphenyl)-1-(2-fluoroethyl)-5-(2-(((3S,4R)-4-hydroxytetrahydrofuran-3-yl)amino)-2-oxoacetyl)-2,4-dimethyl-1H-pyrrole-3-carboxamide] | > 30000 | 50 to 499 |
| Cc1c(C(=O)Nc2ccc(F)c(Cl)c2)c(C)n(C)c1C(=O)C(=O)Nc1ccccn1 [Example 309, N-(3-chloro-4-fluorophenyl)-1,2,4-trimethyl-5-(2-oxo-2-(pyridin-2-ylamino)acetyl)-1H-pyrrole-3-carboxamide] | > 30000 | 50 to 499 |
| Cc1c(C(=O)Nc2ccc(F)c(Cl)c2)c2n(c1C(=O)C(=O)N[C@H]1CCC[C@H]1O)CCCC2 [Example 451, N-(3-chloro-4-fluorophenyl)-3-(2-(((1S,2R)-2-hydroxycyclopentyl)amino)-2-oxoacetyl)-2-methyl-5,6,7,8-tetrahydroindolizine-1-carboxamide] | 5000 to 30000 | 50 to 499 |
| CC(C)(CO)NC(=O)C(=O)c1cc(C(=O)Nc2cc(F)c(F)c(F)c2)c2n1CCCC2 [Example 424, 3-(2-((1-hydroxy-2-methylpropan-2-yl)amino)-2-oxoacetyl)-N-(3,4,5-trifluorophenyl)-5,6,7,8-tetrahydroindolizine-1-carboxamide] | > 30000 | 50 to 499 |
| Cc1cc(NC(=O)c2c(C)c(C(=O)C(=O)N[C@@H]3CCOC[C@H]3O)n(CCF)c2C)ccc1F [Example 196, N-(4-fluoro-3-methylphenyl)-1-(2-fluoroethyl)-5-(2-(((3S,4R)-3-hydroxytetrahydro-2H-pyran-4-yl)amino)-2-oxoacetyl)-2,4-dimethyl-1H-pyrrole-3-carboxamide] | > 30000 | 50 to 499 |
| Cc1cc(NC(=O)c2c(C)c(C(=O)C(=O)N[C@@H]3CCN(S(C)(=O)=O)C3)n(C)c2C)ccc1F [Example 665, (R)-N-(4-fluoro-3-methylphenyl)-1,2,4-trimethyl-5-(2-((1-(methylsulfonyl)pyrrolidin-3-yl)amino)-2-oxoacetyl)-1H-pyrrole-3-carboxamide] | 5000 to 30000 | < 50 |
| Cc1c(C(=O)Nc2ccnc(Cl)c2)c(C)n(C)c1C(=O)C(=O)N[C@H]1CC[C@@H](O)CC1 [Example 252, N-(2-chloropyridin-4-yl)-5-(2-(((1s,4s)-4-hydroxycyclohexyl)amino)-2-oxoacetyl)-1,2,4-trimethyl-1H-pyrrole-3-carboxamide] | > 30000 | 50 to 499 |
| Cc1noc([C@H](C)NC(=O)C(=O)c2c(Cl)c(C(=O)Nc3ccc(F)c(F)c3)c3n2CCC3)n1 [Example 568, (S)-6-chloro-N-(3,4-difluorophenyl)-5-(2-((1-(3-methyl-1,2,4-oxadiazol-5-yl)ethyl)amino)-2-oxoacetyl)-2,3-dihydro-1H-pyrrolizine-7-carboxamide] | 5000 to 30000 | < 50 |
| Cc1c(C(=O)Nc2ccc(F)nc2)c(C)n(C)c1C(=O)C(=O)NC1(C(N)=O)CCCCC1 [Example 93, 5-(2-((1-carbamoylcyclohexyl)amino)-2-oxoacetyl)-N-(6-fluoropyridin-3-yl)-1,2,4-trimethyl-1H-pyrrole-3-carboxamide] | > 30000 | 50 to 499 |
| Cc1cc(NC(=O)c2cc(C(=O)C(=O)N[C@H](C)C(C)(F)F)n3c2CCCC3)ccc1F [Example 428, (R)-3-(2-((3,3-difluorobutan-2-yl)amino)-2-oxoacetyl)-N-(4-fluoro-3-methylphenyl)-5,6,7,8-tetrahydroindolizine--1 carboxamide] | > 30000 | 50 to 499 |
| Cc1cc(NC(=O)c2c(C)c(C(=O)C(=O)NC(C)(C)C)n(CCO)c2C)ccc1F [Example 71, 5-(2-(tert-butylamino)-2-oxoacetyl)-N-(4-fluoro-3-methylphenyl)-1-(2-hydroxyethyl)-2,4-dimethyl-1H-pyrrole-3-carboxamide] | > 30000 | > 1000 |
| Cc1c(C(=O)Nc2ccc(F)c(Cl)c2)c(C)n(C)c1C(=O)C(=O)Nc1cccnc1 [Example 311, N-(3-chloro-4-fluorophenyl)-1,2,4-trimethyl-5-(22-oxo-2-(pyridin-3-ylamino)acetyl)-1H-pyrrole-3-carboxamide] | > 30000 | < 50 |
| Cc1cc(NC(=O)c2c(C)c(C(=O)C(=O)N[C@]3(C)CC[C@@H](O)CC3)n(C)c2C)ccc1F [Example 273, N-(4-fluoro-3-methylphenyl)-5-(2-(((1r,4r)-4-hydroxy-1-methylcyclohexyl)amino)-2-oxoacetyl)-1,2,4-trimethyl-1H-pyrrole-3-carboxamide] | > 30000 | < 50 |
| Cc1cc(NC(=O)c2c(C)c(C(=O)C(=O)N[C@]3(C)CC[C@H](O)CC3)n3c2CCCC3)ccc1F [Example 737, N-(4-fluoro-3-methylphenyl)-3-(2-(((1s,4s)-4-hydroxy-1-methylcyclohexyl)amino)-2-oxoacetyl)-2-methyl-5,6,7,8-tetrahydroindolizine-1-carboxamide] | > 30000 | < 50 |
| Cc1c(C(=O)Nc2ccc(F)c(F)c2)c(C)n(C)c1C(=O)C(=O)N[C@]1(C)CC[C@@H](O)CC1 [Example 706, N-(3,4-difluorophenyl)-5-(2-(((1r,4r)-4-hydroxy-1-methylcyclohexxyl)amino)-2-oxoacetyl)-1,2,4-trimethyl-1H-pyrrole-3-carboxmaide] | > 30000 | < 50 |
| Cc1cc(NC(=O)c2c(C)c(C(=O)C(=O)N[C@H]3C4CC5CC3C[C@](O)(C5)C4)n(C)c2C)cnc1F [Example 122, N-(6-fluoro-5-methylpyridin-3-yl)-5-(2-(((1R,2s,3S,5s,7s)-5-hydroxyadamantan-2-yl)amino)-2-oxoacetyl)-1,2,4-trimethyl-1H-pyrrole-3-carboxamide] | > 30000 | < 50 |
| Cc1noc(C2(NC(=O)C(=O)c3c(C)c(C(=O)Nc4ccc(F)c(C)c4)c(C)n3C)CC2)n1 [Example 155, N-(4-fluoro-3-methylphenyl)-1,2,4-trimethyl-5-(2-((1-(3-methyl-1,2,4-oxxadiazol-5-yl)cyclopropyl)amino)-2-oxoacetyl)-1H-pyrrole-3-carboxamide] | > 30000 | < 50 |
| Cc1cc(NC(=O)c2c(C)c(C(=O)C(=O)NC3(C)CC(F)(F)C3)n(C)c2C)ccc1F [Example 238, 5-(2-((3,3-difluoro-1-methylcyclobutyl)amino)-2-oxoacetyl)-N-(4-fluoro-3-methylphenyl)-1,2,4-trimethyl-1H-pyrrole-3-carboxamide] | > 30000 | < 50 |
| Cc1cc(NC(=O)c2c(C)c(C(=O)C(=O)NC3(C(F)(F)F)CCOCC3)n(C)c2C)cc(Cl)n1 [Example 638, N-(2-chloro-6-methylpyridin-4-yl)-1,2,4-trimethyl-5-(2-oxo-2-((4-(trifluoromethyl)etetrahydro-2H-pyran-4-yl)amino)acetyl)-1H-pyrrole-3-carboxamide] | > 30000 | < 50 |
| Cc1c(C(=O)NC2CCC(F)(F)C2)c2n(c1C(=O)C(=O)NC1(CO)CCC1)CCCC2 (stereo not drawn) [Example 744, N-(3,3-difluorocyclopentyl)-3-(2-((1-(hydroxymethyl)cyclobutyl)amino)-2-oxoacetyl)-2-methyl-5,6,7,8-tetrahdyroindolizine-1-carboxamide] | > 30000 | 50 to 499 |
| Cc1cc(NC(=O)c2c(C)c(C(=O)C(=O)NCC3(O)CCOCC3)n(C)c2C)ccc1F [Example 150, N-(4-fluoro-3-methylphenyl)-5-(2-(((4-hydroxytetrahydro-2H-pyran-4-yl)methyl)amino)-2-oxoacetyl)-1,2,4-trimethyl-1H-pyrrole-3-carboxamide] | > 30000 | < 50 |
| Cc1c(C(=O)Nc2ccc(F)cc2)c(C)n(C)c1C(=O)C(=O)N[C@H]1CC[C@@H](O)CC1 [Example 724] | > 30000 | < 50 |
| Cc1cc(NC(=O)c2cc(C(=O)C(=O)N[C@H](CO)[C@@H](C)O)n3c2CCCC3)ccc1F [Example 433, 3-(2-(((2R,3R)-1,3-dihydroxybutan-2-yl)amino)-2-oxoacetyl)-N-(4-fluoro-3-methylphenyl)-5,6,7,8-tetrahydroindolizine-1-carboxamide] | > 30000 | 500 to 1000 |
| Cc1cc(NC(=O)c2cc(C(=O)C(=O)NC(C)(C)CO)n3c2CCC3)ccc1F [Example 537, N-(4-fluoro-3-methylphenyl)-5-(2-((1-hydroxy-2-methylpropan-2-yl)amino)-2-oxoacetyl)-2,3-dihydro-1H-pyrrolizine-7-carboxamide] | > 30000 | 50 to 499 |
| Cc1c(C(=O)Nc2ccc(F)c(F)c2)c(C)n(C)c1C(=O)C(=O)NC(C)(C)C [Example 4, 5-(2-(tert-butylamino)-2-oxoacetyl)-N-(3,4-difluorophenyl)-1,2,4-trimethyl-1H-pyrrole-3-carboxamide] | > 30000 | < 50 |
